# Reference: patent US9737073B2, “Herbicidal weed control from combinations of fluroxypyr and ALS inhibitors” (Dow AgroSciences LLC, priority 2014, dated 2017)
# Several values for one entry are separate records, joined by “and”; a condition that tells them apart may be missing. Equal values may be shown once.
# Experiments:
# Type in all cases: in vivo
# [1] = test system: Amaranthus rudis Sauer (common waterhemp, AMATA); assay: Postemergence herbicidal weed control, fluroxypyr-meptyl and diclosulam, greenhouse trials (Table 1)
# Experimental: (§1) Seeds of the desired test plant species were planted in a peat-based potting soil, Metro-Mix 360® in plastic pots with a surface area of 128 square centimeters (cm^2). Metro-Mix 360® consists of formulated Canadian sphagnum peat moss, coarse perlite, bark ash, a starter nutrient charge (with gypsum), a slow-release nitrogen and dolomitic limestone. The plants were grown for 7-19 days in a greenhouse with an approximate 14-hour (h) photoperiod which was maintained at about 29° C. during the day and 26° C. during the night. Nutrients and water were added on a regular basis and supplemental lighting was provided with overhead metal halide 1000-Watt lamps as necessary. The plants were treated with postemergence foliar applications when they reached the third to fourth true leaf stage. All treatments were applied using a randomized complete block trial design, with 4 replications per treatment.
# (§2) Treatments consisted of the compounds as listed in Tables 1 to 4, each compound applied alone and in combination. Commercially formulated products of fluroxypyr-meptyl (STARANE™, 333 grams acid equivalent per liter (g ae/L) EC), diclosulam (SPIDER® 84WG), cloransulam-methyl (FIRSTRATE™ 84WG), chlorimuron-ethyl (CLASSIC® 25WG) and thifensulfuron-methyl (HARMONY® 50SG). Formulated amounts of fluroxypyr-meptyl, diclosulam, cloransulam-methyl, chlorimuron-ethyl and thifensulfuron-methyl were placed in 60 milliliter (mL) glass vials and dissolved in a volume of 30 or 60 mL of a water solution containing Agri-dex crop oil concentrate in a 1% volume per volume (v/v) ratio. Compound requirements are based upon either a 30- or a 60-mL application volume at a rate of 200 liters per hectare (L/ha). Spray solutions of the mixtures were prepared by adding the stock solutions to the appropriate amount of dilution solution to form either a 30- or a 60-mL spray solution with active ingredients in single and two-way combinations. Formulated compounds were applied to the plant material with an overhead Generation III Research Sprayer manufactured by DeVries Manufacturing in Hollandale, Minn., USA. The track sprayer was equipped with an 8003E nozzle calibrated to deliver 200 L/ha at a spray height of 18 inches (43 centimeters (cm)) above average plant canopy.
# (§3) The treated plants and untreated control plants were placed in a greenhouse as described above and watered by sub-irrigation to prevent wash-off of the test compounds.
# (§4) Treatments were rated at 7 to 21 days after application (DAA) as compared to the untreated control plants. Visual weed control was scored on a scale of 0 to 100 percent where 0 corresponds to no injury and 100 corresponds to complete kill.
# (§5) Colby's equation was used to determine the herbicidal effects expected from the mixtures (Colby, S. R. Calculation of the synergistic and antagonistic response of herbicide combinations. Weeds 196715, 20-22). A t-test (alpha=0.05) between Colby predictions and observed combinations was used to test for significant differences indicating synergy or antagonism. The results presented in the Tables were significant according to the described criteria.
# (§6) The following equation was used to calculate the expected activity of mixtures containing two active ingredients, A and B: Expected=A+B−(A×B/100) • A=observed efficacy of active ingredient A at the same concentration as used in the mixture; • B=observed efficacy of active ingredient B at the same concentration as used in the mixture.
# [2] = test system: Chenopodium album (common lambsquarters, CHEAL); assay: as above
# Experimental: as §1, §2, §3, §4, §5, §6
# [3] = test system: Abutilon theophrasti (velvetleaf, ABUTH); assay: as above
# Experimental: as §1, §2, §3, §4, §5, §6
# [4] = test system: Amaranthus rudis Sauer (common waterhemp, AMATA); assay: Postemergence herbicidal weed control, fluroxypyr-meptyl and cloransulam-methyl, field trials (Table 2)
# Experimental: as §1, §2, §3, §4
# (§7) Field trials were conducted using standard herbicide small plot research methodology. Plots varied from 3×3.3 meter (m) to 4.5×10 m (width×length) with 4 replicates per treatment. The crops used in the field trials were grown using normal cultural practices for land preparation, fertilization, seeding and maintenance to ensure good growth of the crop and the weeds.
# (§8) All treatments in the field trials were applied using either pressurized air or carbon dioxide (CO2) backpack or bicycle sprayers calibrated to apply 100-187 L/ha spray volume. Flat Fan spray nozzles were used in all trials, with water as the diluent applied at 275-300 kilopascals (kPa). Weed sizes at application ranged from 10 to 40 cm tall. Commercially available products of fluroxypyr-meptyl (STARANE™, 180 and 333 g ae/L EC), diclosulam (SPIDER® 84WG), and thifensulfuron-methyl (HARMONY® 75WG) were mixed in water at appropriately formulated product rates to achieve the desired rates based on a unit area of application (hectare) to achieve the desired rates as shown. No adjuvants were tank-mixed with any treatments applied in the field trials. Treatments were rated at 14-26 days after application as compared to the untreated control plants. […]
# [5] = test system: Abutilon theophrasti (velvetleaf, ABUTH); assay: as above
# Experimental: as §1, §2, §3, §4, §7, §8
# [6] = test system: Chenopodium album (common lambsquarters, CHEAL); assay: as above
# Experimental: as §1, §2, §3, §4, §7
# as §8, with “[…] Visual weed control was scored on a scale of 0” for “Treatments were rated at 14-26 days after application as compared”, “100 percent where 0 corresponds to no injury and 100 corresponds to complete kill.” for “the untreated control plants.”
# [7] = test system: Amaranthus rudis Sauer (common waterhemp, AMATA); assay: Postemergence herbicidal weed control, fluroxypyr-meptyl and chlorimuron-ethyl, field trials (Table 3)
# Experimental: as §1, §2, §3, §4, §7, §8
# [8] = test system: Abutilon theophrasti (velvetleaf, ABUTH); assay: as above
# Experimental: as §1, §2, §3, §4, §7, §8
smiles,measurement,setting,value
"CCCCCCC(C)OC(=O)COc1nc(F)c(Cl)c(N)c1Cl (centres unmarked) [Fluroxypyr-meptyl, fluroxypyr-methylheptyl ester]",Fluroxypyr-meptyl Mean % weed control,"[1]; 8DAA1, 50 g ae/ha",60.0%
same,Fluroxypyr-meptyl Mean % weed control,"[1]; 14DAA1, 50 g ae/ha",43.8%
same,Fluroxypyr-meptyl Mean % weed control,"[1]; 14DAA1, 100 g ae/ha",37.5%
same,Fluroxypyr-meptyl Mean % weed control,"[1]; 21DAA1, 50 g ae/ha",37.5%
same,Fluroxypyr-meptyl Mean % weed control,"[1]; 21DAA1, 100 g ae/ha",38.8%
same,Fluroxypyr-meptyl Mean % weed control,"[2]; 8DAA1, 50 g ae/ha",43.3%
same,Fluroxypyr-meptyl Mean % weed control,"[2]; 14DAA1, 50 g ae/ha",20.0%
same,Fluroxypyr-meptyl Mean % weed control,"[2]; 21DAA1, 50 g ae/ha",18.3%
same,Fluroxypyr-meptyl Mean % weed control,"[2]; 21DAA1, 100 g ae/ha",21.0%
same,Fluroxypyr-meptyl Mean % weed control,"[3]; 14DAA1, 25 g ae/ha",70.0%
same,Fluroxypyr-meptyl Mean % weed control,"[3]; 21DAA1, 25 g ae/ha",72.5%
same,Fluroxypyr-meptyl Mean % weed control,"[4]; 8DAA1, 25 g ae/ha",42.5%
same,Fluroxypyr-meptyl Mean % weed control,"[4]; 14DAA1, 25 g ae/ha",21.3%
same,Fluroxypyr-meptyl Mean % weed control,"[4]; 21DAA1, 25 g ae/ha",22.5%
same,Fluroxypyr-meptyl Mean % weed control,"[5]; 14DAA1, 25 g ae/ha",68.3% and 70.0%
same,Fluroxypyr-meptyl Mean % weed control,"[5]; 21DAA1, 25 g ae/ha",71.7% and 72.5%
same,Fluroxypyr-meptyl Mean % weed control,"[6]; 8DAA1, 25 g ae/ha",33.3%
same,Fluroxypyr-meptyl Mean % weed control,"[6]; 14DAA1, 25 g ae/ha",10.0%
same,Fluroxypyr-meptyl Mean % weed control,"[6]; 14DAA1, 100 g ae/ha",33.3%
same,Fluroxypyr-meptyl Mean % weed control,"[6]; 21DAA1, 25 g ae/ha",18.3%
same,Fluroxypyr-meptyl Mean % weed control,"[6]; 21DAA1, 50 g ae/ha",18.3%
same,Fluroxypyr-meptyl Mean % weed control,"[6]; 21DAA1, 100 g ae/ha",21.0%
same,Fluroxypyr-meptyl Mean % weed control,"[7]; 7DAA1, 25 g ae/ha",25.0%
same,Fluroxypyr-meptyl Mean % weed control,"[7]; 14DAA1, 25 g ae/ha",7.5%
same,Fluroxypyr-meptyl Mean % weed control,"[8]; 14DAA1, 50 g ae/ha",67.0%
same,Fluroxypyr-meptyl Mean % weed control,"[8]; 14DAA1, 100 g ae/ha",80.8%
